Measured values reported in patent US10143668B2, “Hydroxy-substituted amino and ammonium derivatives and their medical use” (GRI BIO, INC., priority 2011, dated 2018).
“And” between values parts separate entries of the source, which are not always exact repeats. Equal values may be shown once. Marks after values point to notes of the source that are not given here.

What was measured:
[1] = test system: allergic contact dermatitis response in mice; assay: Allergic contact dermatitis (TDI) model in mice, mouse ear swelling test; format: in vivo
Method: The anti-inflammatory and anti-allergic effects of compound 1a were assessed in a mouse model of allergic contact dermatitis, a response driven primarily by T helper type 2 (Th2) cells. […] In this model, an allergic dermatitis response is obtained by sensitizing mice to TDI and subsequently challenging them with antigen by topical administration onto the ears. A quantitative assessment of anti-inflammatory and anti-allergic effects of topically or orally administered test compounds is possible by measuring the resulting ear swelling.
Female BALB/c-mice were obtained from Charles River (Sulzfeld, Germany) at age 8 weeks. All animals were housed in groups of eight per cage at 22° C. with a 12 h light/dark-cycle. Water and a standard diet (Altromin, Lage/Lippe, Germany) were available ad libitum. All animals were acclimatized for one week before experimental procedures were commenced.
Experimental procedures for BALB/c mice housing, TDI sensitization and challenge, and measurement of ear thickness were performed as previously described (Baumer et al., J Pharm Pharmacol. 55:1107-1114 (2003)) with the following modifications. For active sensitization, 100 μL of 5% (w/v) TDI was administered to the shaved and stripped abdominal epidermis on day one, and for the next three consecutive days, 50 μL of 5% (w/v) TDI was applied. The allergic reaction was boosted 21 days later by application of 50 μL of 0.5% (w/v) TDI. For the examination of test compound effects, the left ears were used for the TDI challenge (20 μL of 0.5% in acetone) and ear thickness measured 3 h before and 24 h after challenge.
Administration time: to determine optimal time for administration treatment groups were treated orally by gavage with 100 mg/kg of compound 1a (suspended in 0.5% tylose, 10 mL/kg) 1, 4 or 16 h before topical TDI challenge. One group was treated with 100 mg/kg miltefosine orally, 16 h before challenge (based on available data for optimal administration time for miltefosine) and vehicle treated mice received tylose (10 mL/kg) orally, 4 h before challenge.
Comparison with dexamethasone: one group of mice was treated orally with compound 1a at 100 mg/kg suspended in 0.5% tylose, 4 h before topical TDI challenge. Vehicle treated mice received 0.5% tylose orally 4 h before challenge. As a positive control, dexamethasone was administered in saline solution at 1 mg/kg or 3 mg/kg, 2 h and 30 min before challenge and 1 h after challenge. The dose and dosing scheme for dexamethasone was based on previous experience showing a maximal effect in this model.
[…] The solution was applied, 2 h before topical TDI challenge by administration of 10 μl onto each of the inner and outer surfaces of the left ears. A vehicle group (n=5) was treated with propyleneglycol. As a positive control, diflorasone diacetate was administered at 0.01% (low dose) and 0.05% (high dose) in 20 μl acetone, 2 h before challenge. A basal control group was left untreated.
Mean and standard error of the mean (SEM) were calculated from individual ear edema values. Statistical evaluation was a one-way analysis of variance (ANOVA) (if the test for normal distribution was passed) or the Kruskal-Wallis one-way ANOVA on Ranks (if the normal distribution test failed). Both were followed by a post-hoc test (Dunnett's method or Dunn's test, respectively). A p<0.05 was considered to be significant.

[2] = test system: local lymph node reaction; assay: Local lymph node weight and cell count after TDI challenge; settings: topical, diflorasone 0.1% and 0.5%, 1a 2% or 6%
Method: Directly after sacrifice, the ear draining lymph node (Ln. auricularis) was prepared and excised. Organ weight was determined by means of an analytical balance (Kern, Balingen, Germany). Single cell suspensions were prepared by means of a glass potter (VWR, Darmstadt, Germany) and cells were counted with a hemocytometer (Neubauer, VWR, Germany).
One of the most undesirable side-effects of corticosteroid administration is immunosuppression, which leads to the inability to effectively address parasitic infection, wound healing and tumor growth. In the current study, the local lymph node reaction after TDI challenge (lymph node weight and cell number) was determined to assess the response of immune organs.

## CCCCCCCCCCCCCC[N+](C)(C)CC(=O)N(C)C[C@H](O)[C@@H](O)[C@H](O)[C@H](O)CO [Compound 1a, N-(2-(Dimethyl(tetradecyl)ammonio)acetyl)-N-methyl-D-glucamine chloride]
[1]; 100 mg/kg oral
  toxicity: no toxicity
[1]; 100 mg/kg oral vs dexamethasone 3 mg/kg
  inhibition relative to the highest dose of dexamethasone: 37%
[1]; administration time study, 100 mg/kg oral, 1 h before TDI challenge
  Inhibition of mouse ear swelling: 43.5* %
[1]; administration time study, 100 mg/kg oral, 4 h before TDI challenge
  Inhibition of mouse ear swelling: 63% and 62.9*** %
[1]; administration time study, 100 mg/kg oral, 16 h before TDI challenge
  Inhibition of mouse ear swelling: 43.5^§ %
[1]; comparison with dexamethasone, 100 mg/kg oral, 4 h before challenge
  Inhibition of mouse ear swelling: 32%
[1]; topical, 2% solution in propyleneglycol, 2 h before challenge
  Inhibition of mouse ear swelling: 68% and 67.7*** %
[1]; topical, 6% solution in propyleneglycol, 2 h before challenge
  Inhibition of mouse ear swelling: 83% and 82.2*** %
[2]
  local lymph node reaction (lymph node weight and cell number): only a modest effect
